pIC50: −log10 of the molar value.
Target: T1, CYP6Z1 (Anopheles funestus, UniProt Z9NKG6IF05)
T1 sequence (Z9NKG6IF05 1-492): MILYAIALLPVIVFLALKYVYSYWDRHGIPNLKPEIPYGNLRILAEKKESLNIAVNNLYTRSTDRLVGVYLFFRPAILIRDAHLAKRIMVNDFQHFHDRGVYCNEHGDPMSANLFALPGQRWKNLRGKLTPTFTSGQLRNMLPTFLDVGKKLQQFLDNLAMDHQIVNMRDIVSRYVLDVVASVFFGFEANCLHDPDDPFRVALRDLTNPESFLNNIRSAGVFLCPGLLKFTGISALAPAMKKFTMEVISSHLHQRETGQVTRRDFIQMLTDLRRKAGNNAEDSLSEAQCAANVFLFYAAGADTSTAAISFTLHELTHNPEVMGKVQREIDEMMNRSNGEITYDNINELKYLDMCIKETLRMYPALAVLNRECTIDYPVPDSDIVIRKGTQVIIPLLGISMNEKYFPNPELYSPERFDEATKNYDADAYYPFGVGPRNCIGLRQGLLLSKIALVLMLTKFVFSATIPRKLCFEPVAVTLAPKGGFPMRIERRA

## Clc1ccc(C(c2ccc(Cl)cc2)C(Cl)(Cl)Cl)cc1 [DDT]
  pIC50: 5.05

## CNC(=O)Oc1cccc2c1OC(C)(C)O2 [bendiocarb]
  pIC50: 5.02

Source: publication PMC4950264 (Molecular Ecology, 2016)
